Measurements published in BindingDB's records for doi:10.1038/sj.mp.4000336 (University of Toronto, 1998).

Target: 5-hydroxytryptamine receptor 2A (Rattus norvegicus, UniProt P14842)
Sequence (P14842 whole entry): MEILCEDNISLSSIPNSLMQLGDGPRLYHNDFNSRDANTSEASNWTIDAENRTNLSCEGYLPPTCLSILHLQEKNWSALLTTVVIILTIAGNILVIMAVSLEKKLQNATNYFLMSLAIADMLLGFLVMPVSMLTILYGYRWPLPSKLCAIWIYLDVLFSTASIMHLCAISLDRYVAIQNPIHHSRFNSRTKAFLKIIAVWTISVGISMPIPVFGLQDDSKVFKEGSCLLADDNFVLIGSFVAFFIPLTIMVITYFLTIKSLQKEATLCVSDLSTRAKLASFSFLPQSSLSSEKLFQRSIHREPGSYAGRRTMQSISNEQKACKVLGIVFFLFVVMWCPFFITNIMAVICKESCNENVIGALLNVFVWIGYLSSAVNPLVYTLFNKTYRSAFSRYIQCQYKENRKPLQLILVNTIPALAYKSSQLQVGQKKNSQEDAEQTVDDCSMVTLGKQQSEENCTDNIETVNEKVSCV

Q: For `CCN1CCC[C@H]1CNC(=O)c1c(OC)ccc(Br)c1OC`, which Ki is on record?
A: Its Ki is 5.2 µM.

Q: How did the Ki turn out when `CCN1CCC[C@H]1CNC(=O)c1c(O)c(Cl)cc(Cl)c1OC` [3,5-Dichloro-N-(1-ethyl-pyrrolidin-2-ylmethyl)-2-hydroxy-6-methoxy-benzamide (raclopride)] was run?
A: The Ki was 4 µM.

Q: How did the Ki turn out when `O=C1C2CCCCC2C(=O)N1CCCCN1CCN(c2nsc3ccccc23)CC1` (stereo not drawn) [NSC_115368] was run?
A: Its Ki is 0.0013 µM.
